# Assay results taken from ChEMBL document CHEMBL3507680, “University of Dundee, Gates Library screen for HepG2 cell viability”.
# Assay: Human HepG2 cell viability assay in 384 well format
# Type: toxicity, cell-based
# Parameters: dose 125 nL, time 70.5 hour; cytotoxicity at 70.5 h: concentration not given beside the values
# Conditions: HepG2 cells, read-out: Inhibition
row,SMILES,cytotoxicity at 70.5 h [%]
1,COCC(=O)N1CCC(C(=O)N(C)CCCc2nccn2C)CC1,1.13
2,CCN(Cc1noc(CC(C)C)n1)Cc1ccccc1C(=O)O,-6.37
3,O=C(NC1CCCN(CCc2ccccc2)C1)c1cnccn1 (configuration not stated),-3.22
4,CCC(C)Oc1ccc(CNCCNC(C)=O)cc1Cl (configuration not stated),-3.38
5,Cc1nc(CN(C)Cc2csc(-c3cccs3)n2)co1,6.2
6,Cc1nc2c(c(NCc3ccccc3)n1)CCN(C(=O)NC(C)C)CC2,30.7
7,c1ccc(Cc2n[nH]c(C3CCOC3)n2)cc1 (configuration not stated),-3.76
8,Cc1n[nH]c(C)c1CCNC(=O)Nc1ccc(S(C)(=O)=O)cc1,-20
9,CSCCC(=O)N1CCCCC1CCn1cccn1 (configuration not stated),-6.75
10,Cc1nccn1CCC1CCCCN1Cc1cccc(CCN)c1 (configuration not stated),-1.82
11,CN(C)C(Cn1ccnc1-c1nccn1C)c1ccccc1Cl (configuration not stated),-5.92
12,Cc1nc[nH]c1CN1CCOC(CCNC(=O)c2ccsc2)C1 (configuration not stated),2.08
13,CN(Cc1ccsc1)Cc1nc(-c2ccncc2)no1,20.5
14,Cc1ncsc1CCN(C)C(=O)CCc1nc2cccnc2n1C,-11.9
15,CCC[C@@H]1CN(C(=O)c2cc(-c3cccs3)n(C)n2)C[C@H]1NS(C)(=O)=O,-4.08
16,Cc1ccccc1C(CC(=O)NCc1n[nH]c(N)n1)c1ccccc1 (configuration not stated),-4.71
17,Cc1nc(C(=O)N2CCC3(CC2)CC(=O)N(CC2CCCO2)C3)cs1 (configuration not stated),-9.89
18,CSCCCN1CCc2nc(N(C)C)nc(N3CCC(O)CC3)c2C1,-6.06
19,Cc1nonc1CN1CC[C@@](O)(C2CCOCC2)[C@H](C)C1,-11
20,Cc1cc(CN2CCC(CNC(=O)Cc3ccc(F)cc3)C2)[nH]n1 (configuration not stated),-7.47
21,CN(C)CCN1CC2(CCN(C(=O)c3cnccn3)CC2)OC1=O,-2.71
22,CC(=O)c1ccc(NC(=O)NC(C(=O)N(C)C)C(C)C)cc1 (configuration not stated),-4.29
23,O=C1NCCCc2[nH]c(C3CCCN(C(=O)C4CC4)C3)nc21 (configuration not stated),-10.4

row,SMILES,cytotoxicity at 70.5 h [%]
1,c1cc(CN2CCC(CCn3cccn3)CC2)cc(Cn2cccn2)c1,-2.62
2,CC(C)N1CCC(CC(=O)N2CCN(Cc3nccn3C)CC2)CC1,-6.78
3,O=C(CCc1cc(Cl)no1)N1CCCCC1CCn1ccnc1 (configuration not stated),-5.27
4,COC(=O)c1cc2n(n1)CCN(C(=O)c1csc(CN(C)C)n1)C2,-12.3
5,CCC[C@@H]1CN(Cc2c[nH]nc2-c2ccc(OC)cc2)C[C@H]1NC(C)=O,-7.5
6,Cc1ccsc1CN(C)Cc1ncccc1C(=O)O,-2.01
7,Cc1csc2c(N3CCNC(C(=O)Nc4ccc(F)cc4)C3)ncnc12 (configuration not stated),-9.29
8,CCc1ccccc1CN1CCC(N2CCCC2=O)CC1,-8.77
9,CN(CCN1CCCCC1=O)Cc1cc2cc3c(cc2[nH]c1=O)OCO3,-8.86
10,COc1ncccc1C1CC(=O)Nc2cc(NS(C)(=O)=O)ccc21 (configuration not stated),-9.6
11,N#CC1CCCN(S(=O)(=O)c2ccc(C(=O)NCC(F)F)cc2)C1 (configuration not stated),3.7
12,Cc1cccc(C(C(=O)NCc2cc(C)[nH]n2)N(C)C)c1 (configuration not stated),7.18
13,COc1cccc2c1OCC(C(=O)N1CCSCC1)C2 (configuration not stated),-8.37
14,Cc1cccc(Cc2nc3c([nH]2)CCCNC3=O)c1,-5.33
15,Cc1nnsc1CN(C)C(=O)CCn1cnc2ccccc21,-9.98
16,Cc1ccsc1[C@@H]1CCN(C(=O)CCc2cc(O)no2)C[C@H]1O,-15.1
17,CC(C)(C)C(=O)N[C@H]1CC[C@H](Nc2nccc(-c3ccncc3)n2)C1,-6.97
18,COc1c(C)cnc(CN2CCCCC2CCN2CCOCC2)c1C (configuration not stated),-11.7
19,CN(C)C[C@@H]1CN(C(=O)c2cc(S(N)(=O)=O)ccc2F)C[C@@H]1CO,-4.5
20,COc1cccc2c1OCC(NCc1cnn(-c3ccccc3)c1)C2 (configuration not stated),14.4
21,COc1ccccc1OC1(C(=O)O)CCN(c2nccnc2OC)CC1,23.1
22,C=C(C)COc1cccc(C(=O)N2CCC3(CC2)CN(C)CCN3C)c1,-7.19
23,COc1cccc(-c2cccc(N3CCC(N[C@@H]4CCOC4)CC3)c2)c1,2.44

row,SMILES,cytotoxicity at 70.5 h [%]
1,CCc1noc(CN(C)Cc2cc3ccc(Cl)cc3[nH]c2=O)n1,-5.21
2,Cc1nc2ccccc2nc1NCc1nnc2n1CCC2,0.938
3,CCOC(=O)CNC(=O)N1CCc2onc(-c3ccc(Cl)cc3)c2C1,-16.3
4,Cc1cc(NCCNS(C)(=O)=O)nc2cc3c(cc12)CCC3,-5.01
5,Cc1ccc(C(=O)N2CC(C)(C)[C@@](C)(O)C2)cc1N1CCNC1=O,0.84
6,Cc1cc(C)c2nc(CN3CCC(CN)CC3)cc(O)c2c1,2.77
7,O=C(N[C@@H]1CCNC[C@H]1O)c1ccc(O)c(Cl)c1,-8.26
8,Cc1ccc(C)c(-n2cc(CN3CCOCC3)c(-c3ccccc3)n2)c1,-3.83
9,CCOc1ccc(C(=O)N2Cc3cnc(CC(C)C)nc3C2)o1,-4.06
10,CCN1CCC(CC(=O)N(C)C(C)c2cncs2)CC1 (configuration not stated),-1.72
11,CC(C)N1CCC(c2nnc(CN3CCCC3)n2C2CC2)CC1,-4.86
12,CCOCc1nc2c(c(N3CCN4CCCC4C3)n1)CCNCC2 (configuration not stated),-13.6
13,CN1CCCC2(CCN(S(=O)(=O)c3c(Cl)nc4sccn34)C2)C1=O (configuration not stated),-5.17
14,Cn1cccc1C(=O)N1CCC(c2nnc(Cn3ccnc3)n2C)CC1,-5.24
15,C[C@@H]1CN(CC(C)(C)N2CCOCC2)CC[C@@]1(O)C1CCOCC1,7.82
16,CCC(C(=O)NC1CCCCC1)n1cccc(OC)c1=O (configuration not stated),-1.81
17,Cn1cc(C(=O)N2CCCC(C(=O)CCc3ccccc3)C2)cn1 (configuration not stated),-23.4
18,COc1ccc(OCc2nc(C(=O)N3CCCNC(=O)C3)co2)cc1,-2.16
19,Cc1nc(NCCSc2ccccn2)c2c(C)noc2n1,-4.96
20,CN(C)C(=O)c1ccc(N2CCC3(CCC(=O)N(CCO)C3)CC2)nc1,-2.34
21,COc1ccc2c(C)c(C(=O)NC3CCOCC3)oc2c1,-0.242
22,Cc1[nH]ccc1C(=O)N1C[C@H]2CC[C@@H]1CN(S(=O)(=O)N(C)C)C2,-6.98
23,Cc1nn(C)cc1-c1ccnc(N(C)Cc2ccon2)n1,-5.47

row,SMILES,cytotoxicity at 70.5 h [%]
1,CC(C)=CCN1C[C@H]2CC[C@@H]1CN(Cc1coc(C)n1)C2,-5.37
2,COc1cccc(CC2(C(=O)O)CCN(c3nccs3)CC2)c1,-7.32
3,COc1cc(N2CCCC(CO)(Cc3ccccc3F)C2)ncn1 (configuration not stated),50.5
4,CCN1CCC2(CCC1=O)CN(C1CCOCC1)CCN2C (configuration not stated),-6.68
5,CCCN1C[C@H]2CC[C@@H]1CN(C(=O)c1ccc(N(C)CCO)cc1)C2,1.16
6,COc1ncccc1-c1nc(-c2ccccn2)nn1C1CCN(C)CC1,-6.87
7,c1ncn(Cc2nnc(C3CCN(C4CCOCC4)CC3)n2C2CC2)n1,-7.09
8,COc1cc(C(=O)N2CCC(O)(CN3CCOCC3)C(C)(C)C2)ccn1 (configuration not stated),-0.646
9,O=C(CC(F)(F)F)N1C[C@@H]2CC[C@H](C1)N(Cc1ccccc1)C2=O,-9.7
10,O=C1CN(Cc2cn(CC3CCCN(C4CCSCC4)C3)nn2)CCN1 (configuration not stated),16.1
11,Cc1cc(CC(=O)N2CCN(CC(C)C)[C@@H]3CS(=O)(=O)C[C@@H]32)ccc1F,7.77
12,CCO[C@H]1C[C@@H](O)C12CCN(C(=O)CCN1CCCC1=O)CC2,-9.62
13,C=Cc1ccc(C(=O)N2CCCC(Nc3ccc(F)c(F)c3)C2)cc1 (configuration not stated),26
14,O=C1N(Cc2cccc(F)c2F)CCCC1(O)CNCC1CCCCC1 (configuration not stated),0.845
15,Cc1c(CNC(=O)c2cn(CCC3CCCCN3)nn2)cnn1C (configuration not stated),-1.47
16,O=C(O)C1c2nc[nH]c2CCN1Cc1ccccc1-c1ccccc1 (configuration not stated),-3.54
17,O=C(NCCc1ccc2c(c1)OCO2)C1CCCN(Cc2ccco2)C1 (configuration not stated),1.41
18,CCC(NS(=O)(=O)c1ccc(C(=O)NC2CC2)cc1)c1cnn(C)c1 (configuration not stated),-8.25
19,CCc1nc(CNc2cc(C)nc(-c3cccnc3)n2)cs1,24.1
20,Cc1ccc(F)cc1-c1ccc(N)nc1,15.8
21,Cc1cnn(C(C)C(=O)NCC2CCN(c3cnn(C)c(=O)c3)CC2)c1 (configuration not stated),-5.13
22,Cc1cc(C(=O)N2C[C@H](c3ccccc3)[C@@H](N)C2)c2ccc(F)cc2n1,-12.1
23,N#Cc1cccc(C(=O)N2CCCC(O)(CO)CC2)c1 (configuration not stated),-4.07

row,SMILES,cytotoxicity at 70.5 h [%]
1,CCc1cc(-c2cc[nH]n2)nc(N2CCOCC2)n1,15.6
2,CCCc1cc(CN(C)C2CCSCC2)n[nH]1,0.588
3,Cc1cccc(C(C(=O)NCc2nc(-c3ncccn3)no2)N(C)C)c1 (configuration not stated),-2.35
4,c1ccc(-c2cc(CN3CCCCCC3c3ccco3)on2)nc1 (configuration not stated),-4.66
5,C[C@@H](N)C(=O)N1CCC(c2[nH]ncc2-c2ccccc2)CC1,-8.76
6,COc1cccc(CN(C)C(C)c2nccs2)c1OCCn1ccnc1 (configuration not stated),-3.88
7,Cc1cccc2ncn(C(C)Cn3cccn3)c(=O)c12 (configuration not stated),-10.4
8,CN1CCN([C@@H]2CCN(Cc3cccc(-n4cccn4)c3)C[C@H]2O)CC1,2.97
9,CCCc1cc(N2CCC(NC3CCOCC3)CC2)nc(C)n1,22.8
10,COc1ccc(N2CCN(Cc3noc(CC(C)C)n3)C(C)C2=O)cc1 (configuration not stated),-24.6
11,NC(=O)c1cc2c(nc1Oc1ccc(CN3CCCC3)cc1F)CCC2,-10.9
12,COc1c(F)cc(-c2cn(CCn3c(C)cc(C)nc3=O)nn2)cc1Cl,-2.6
13,Cc1cccnc1CN1CCN(C(=O)CCn2ccc(=O)[nH]c2=O)CC1,-9.8
14,COCCN1CCC2(CC1)CC(c1ccccc1)C(=O)N2C (configuration not stated),-7.45
15,Cc1nccn1CC1CCCN(C(=O)Cc2ccsc2)C1 (configuration not stated),-17.7
16,COCCN1CC2(CCCN(Cc3cc(=O)c(OC)co3)C2)CCC1=O (configuration not stated),-8.24
17,CCc1nc(N2CCCN(c3ncccn3)CC2)c2cnn(C)c2n1,-7.44
18,Cn1cc(-c2ccnc(NCC3CC3)n2)cn1,-10.3
19,O=C(O)C1(O)CCN(c2ccc3cccc(Cl)c3n2)CC1,-20.3
20,CCCOC(C)Cn1ccc2[nH]c(=O)c(C#N)cc2c1=O (configuration not stated),10.5
